Experimental data reported in patent publication US9067934B2, “Bicyclic pyridinones” (Pfizer Inc., priority 2011, dated 2015).
Counter-ions that a name gives are not always drawn.

The molecules below were run on production of amyloid beta protein Aβ(1-42) (γ-secretase) in human WT-APP overexpressing CHO cells (assay: Cell-Based γ-Secretase Assay with ELISA Readout). Details: human WT-APP overexpressing CHO cells, ~24 hours at 37° C., Aβ(1-42) ELISA; footnotes: a = geometric mean of >15 determinations, b = single determination, c = geometric mean of 7-15 determinations; read-out: Aβ 42B IC50 (Geometric Mean of 2-6 Determinations).
Method in brief: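 Human WT-APP-overexpressing CHO cells were pre-cultured 24 h at 37° C, then exposed to compounds (eleven-point half-log series, 1% final DMSO) for ~24 h. Aβ(1-42) in conditioned media was captured with Aβ(1-42)-specific antibody and detected with Eu-labeled 6e10 by DELFIA TRF. IC50 by nonlinear regression against min/max inhibition controls.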

Row | SMILES | IC50 [nM]
1 | Cc1cn(-c2ccc3n(c2=O)CCN(CCOc2cccc4nc(C(F)(F)F)sc24)C3=O)cn1 [Example 97, 7-(4-methyl-1H-imidazol-1-yl)-2-(2-{[2-(trifluoromethyl)-1,3-benzothiazol-7-yl]oxy}ethyl)-3,4-dihydro-2H-pyrido[1,2-a]pyrazine-1,6-dione, trifluoroacetate salt] | 21.3
2 | Cc1cn(-c2ccc3n(c2=O)CCN(CCOc2ccc(F)c4ccc(F)cc24)C3=O)cn1 [Example 98, 2-{2-[(4,7-difluoronaphthalen-1-yl)oxy]ethyl}-7-(4-methyl-1H-imidazol-1-yl)-3,4-dihydro-2H-pyrido[1,2-a]pyrazine-1,6-dione] | 19.4
3 | Cc1cn(-c2ccc3n(c2=O)CCN(CCOc2ncc(Cl)c4ccc(F)cc24)C3=O)cn1 [Example 99, 2-{2-[(4-chloro-7-fluoroisoquinolin-1-yl)oxy]ethyl}-7-(4-methyl-1H-imidazol-1-yl)-3,4-dihydro-2H-pyrido[1,2-a]pyrazine-1,6-dione, trifluoroacetate salt] | 25.3
4 | CCC(COc1ccc(Cl)cc1C(F)(F)F)N1CCn2c(ccc(-n3cnc(C)c3)c2=O)C1=O (stereo not drawn) [Example 100, 2-{1-[4-chloro-2-(trifluoromethyl)phenoxy]butan-2-yl}-7-(4-methyl-1H-imidazol-1-yl)-3,4-dihydro-2H-pyrido[1,2-a]pyrazine-1,6-dione, trifluoroacetate salt] | 135
5 | Cc1cn(-c2ccc3n(c2=O)CCN(CCOc2cccc4[nH]c(C(F)(F)F)cc24)C3=O)cn1 [Example 101, 7-(4-methyl-1H-imidazol-1-yl)-2-(2-{[2-(trifluoromethyl)-1H-indol-4-yl]oxy}ethyl)-3,4-dihydro-2H-pyrido[1,2-a]pyrazine-1,6-dione] | 456
6 | Cc1cn(-c2ccc3n(c2=O)CCN(CCOc2cccc4c2cc(C(F)(F)F)n4C)C3=O)cn1 [Example 102, 7-(4-methyl-1H-imidazol-1-yl)-2-(2-{[1-methyl-2-(trifluoromethyl)-1H-indol-4-yl]oxy}ethyl)-3,4-dihydro-2H-pyrido[1,2-a]pyrazine-1,6-dione] | 33.7
7 | CCC(COc1ccc(F)cc1C(F)(F)F)N1CCn2c(ccc(-n3cnc(C)c3)c2=O)C1=O (stereo not drawn) [Example 103, 2-{1-[4-fluoro-2-(trifluoromethyl)phenoxy]butan-2-yl}-7-(4-methyl-1H-imidazol-1-yl)-3,4-dihydro-2H-pyrido[1,2-a]pyrazine-1,6-dione] | 596
8 | Cc1cn(-c2ccc3n(c2=O)CCN(CCOc2ccccc2-c2nc(C(F)(F)F)ns2)C3=O)cn1 [Example 104, 7-(4-methyl-1H-imidazol-1-yl)-2-(2-{2-[3-(trifluoromethyl)-1,2,4-thiadiazol-5-yl]phenoxy}ethyl)-3,4-dihydro-2H-pyrido[1,2-a]pyrazine-1,6-dione] | 7.2
9 | Cc1cn(-c2ccc3n(c2=O)CCN(CCOc2ccc(F)cc2C(C)(C)C(F)(F)F)C3=O)cn1 [Example 105, 2-{2-[4-fluoro-2-(1,1,1-trifluoro-2-methylpropan-2-yl)phenoxy]ethyl}-7-(4-methyl-1H-imidazol-1-yl)-3,4-dihydro-2H-pyrido[1,2-a]pyrazine-1,6-dione] | 25.2
10 | Cc1cn(-c2ccc3n(c2=O)CCN(CCOc2ccccc2C24CC(C2)C4)C3=O)cn1 [Example 106, 2-{2-[2-(bicyclo[1.1.1]pent-1-yl)phenoxy]ethyl}-7-(4-methyl-1H-imidazol-1-yl)-3,4-dihydro-2H-pyrido[1,2-a]pyrazine-1,6-dione] | 27.4
11 | Cc1cn(-c2ccc3n(c2=O)CCN([C@@H](C)COc2ccc(Cl)cc2C(F)(F)F)C3=O)cn1 [Example 107, 2-{(2S)-1-[4-chloro-2-(trifluoromethyl)phenoxy]propan-2-yl}-7-(4-methyl-1H-imidazol-1-yl)-3,4-dihydro-2H-pyrido[1,2-a]pyrazine-1,6-dione] | 34.4
12 | Cc1cn(-c2ccc3n(c2=O)CCN(CCOc2cccc4c2CC(F)(F)C4)C3=O)cn1 [Example 108, 2-{2-[(2,2-difluoro-2,3-dihydro-1H-inden-4-yl)oxy]ethyl}-7-(4-methyl-1H-imidazol-1-yl)-3,4-dihydro-2H-pyrido[1,2-a]pyrazine-1,6-dione] | 46.8
13 | Cc1cn(-c2ccc3n(c2=O)CCN(CCOc2cccc4c2OC(F)(F)O4)C3=O)cn1 [Example 109, 2-{2-[(2,2-difluoro-1,3-benzodioxol-4-yl)oxy]ethyl}-7-(4-methyl-1H-imidazol-1-yl)-3,4-dihydro-2H-pyrido[1,2-a]pyrazine-1,6-dione] | 275
14 | Cc1cn(-c2ccc3n(c2=O)CCN(CCOc2ccc(Cl)cc2C24CC(C2)C4)C3=O)cn1 [Example 110, 2-{2-[2-(bicyclo[1.1.1]pent-1-yl)-4-chlorophenoxy]ethyl}-7-(4-methyl-1H-imidazol-1-yl)-3,4-dihydro-2H-pyrido[1,2-a]pyrazine-1,6-dione] | 14.5
15 | Cc1cn(-c2ccc3n(c2=O)CCCN(CCOc2ccc(Cl)cc2C(F)(F)F)C3=O)cn1 [Example 111, 2-{2-[4-chloro-2-(trifluoromethyl)phenoxy]ethyl}-8-(4-methyl-1H-imidazol-1-yl)-2,3,4,5-tetrahydropyrido[1,2-a][1,4]diazepine-1,7-dione] | 138
16 | Cc1cn(-c2ccc3n(c2=O)[C@@H](C)CN(CCOc2ccc(F)cc2C(F)(F)F)C3=O)cn1 [Example 112, (4S)-2-{2-[4-fluoro-2-(trifluoromethyl)phenoxy]ethyl}-4-methyl-7-(4-methyl-1H-imidazol-1-yl)-3,4-dihydro-2H-pyrido[1,2-a]pyrazine-1,6-dione] | 340
17 | O=C1c2ccc(-n3cnc(Cl)c3)c(=O)n2CCN1CCOc1ccc(Cl)cc1C(F)(F)F [Example 113, 7-(4-chloro-1H-imidazol-1-yl)-2-{2-[4-chloro-2-(trifluoromethyl)phenoxy]ethyl}-3,4-dihydro-2H-pyrido[1,2-a]pyrazine-1,6-dione] | 292
18 | O=C1c2ccc(-n3cnc(Cl)c3)c(=O)n2CCN1CCOc1ccccc1C(F)(F)F [Example 114, 7-(4-chloro-1H-imidazol-1-yl)-2-{2-[2-(trifluoromethyl)phenoxy]ethyl}-3,4-dihydro-2H-pyrido[1,2-a]pyrazine-1,6-dione] | 1320
19 | Cc1cc(-c2ccc3n(c2=O)CCN(CCOc2cccc4ccc(F)cc24)C3=O)ccn1 [Example 115, 2-{2-[(7-fluoronaphthalen-1-yl)oxy]ethyl}-7-(2-methylpyridin-4-yl)-3,4-dihydro-2H-pyrido[1,2-a]pyrazine-1,6-dione] | 489
20 | Cc1cc(-c2ccc3n(c2=O)CCN(CCOc2ccc(Cl)cc2C(F)(F)F)C3=O)ccn1 [Example 116, 2-{2-[4-chloro-2-(trifluoromethyl)phenoxy]ethyl}-7-(2-methylpyridin-4-yl)-3,4-dihydro-2H-pyrido[1,2-a]pyrazine-1,6-dione] | 3490
21 | Cc1cn(-c2ccc3n(c2=O)CCN([C@@H](C)COc2ccc(Cl)cc2C(C)(C)C(F)(F)F)C3=O)cn1 [Example 117, 2-{(2S)-1-[4-Chloro-2-(1,1,1-trifluoro-2-methylpropan-2-yl)phenoxy]propan-2-yl}-7-(4-methyl-1H-imidazol-1-yl)-3,4-dihydro-2H-pyrido[1,2-a]pyrazine-1,6-dione] | 3.54
